This is an account of results in patent publication US5840740A, “Aminosterol compounds and a method of treating infection using the aminosterol compounds” (priority 1995, dated 1998).

The structures appear in SMILES notation. Entries after “also recorded” stand apart in the source; their conditions may differ.

In data set [1] the test system is NHE1β. The following applies: background, nucleated erythrocytes; cited from earlier work.
Data set [2] can be described thus: Hematological profile in L1210-inoculated mice.
Excerpt: C57B mice were inoculated with L1210 lymphoblastic leukemia cells at an inoculum that causes leukemia in 100% of animals.
Data set [3] deals with B16 melanoma. The data set is described as follows: B16 melanoma growth in C57B mice. The conditions noted are these: compound 319, text subcutaneous, FIG. 6 legend intraperitoneal. In kind it is in vivo, mouse. On the procedure: The growth of B16 melanoma in C57B mice is dependent upon neovascularization.
Using the growth of B16 melanoma cells in C57B mice, a recognized model for the evaluation of inhibitors of angiogenesis on the growth of cancers, the effects of subcutaneous, intraperitoneal and oral administration of squalamine were evaluated.
In this model, there was observed little evidence of metastasis with or without treatment with chemotherapeutic agents.
Based on the idea that tumor growth involves both the clonal expansion of a malignant cell along with the development of a supporting vascular supply, a combination of compound 1436 with squalamine was tested to determine whether it would achieve a synergistic effect on solid tumor growth. This concept was evaluated in the B16 melanoma model.
Animals were implanted with B16 melanoma followed by treatment with compound 1436 or 1256 administered in a combined schedule or separately. […] Thus, a combination of these two compounds achieves a therapeutic benefit in tumors dependent on neovascularization that may prevent metastatic spread.

The test system of data set [4] is human microvascular cells. The data set can be described thus: Inhibition of endothelial cell cord formation in vitro. In kind it is cell-based. The conditions noted are these: Homo sapiens, Endothelial cell; Table II; read-out: Cord Formation, Minimum Effective Concentration. From the text:
Endothelial cells have the capacity in vitro to form tubular aggregates resembling capillaries in various early stages of formation. This conversion occurs under relatively specific conditions, in which essential growth factors along with an effective substratum are provided. It has been shown that both the interaction of growth factors with the endothelial cell and its attachment to a substratum activate the NHE. The activation of this exchanger is believed to be required for subsequent morphologic transformation of the endothelial cell into a multicellular tubular structure.
To assess the effect of compounds on the cord-like structures formed by human microvascular cells when plated in the presence of VEFG (Vascular Endothelial Growth Factor) and basic fibroblast growth factor on a collagen matrix, a standard cord formation assay was used.

Data set [5] deals with Xenopus tadpole. The conditions noted are these: stage 59-60, 10 μg/ml; in words.
Data set [6] deals with chick embryo vitelline capillaries. The data set is described as follows: Chick embryo vitelline capillary regression assay. The conditions noted are these: for vascular reactivity (capillary regression): 60 min; for Chick embryo diss. assay, Minimum Effective Concentration: Table II; for effect on chick embryo vessels / blood: in words. Type of data set: in vivo. Set-up: key to vascular reactivity (capillary regression): +: Vascular reactivity; 0: No vascular reactivity; +/-: Equivocal reactivity. The protocol: Using the chick embryo vitelline capillaries assay, compounds were tested for their ability to induce capillary regression. Each compound was applied in 0.1 ml of 15% Ficol 400 and PBS onto the embryo, and vascular regression was assessed after 60 minutes.
The 3-day chick embryo consists of an embryonic disc from which numerous vessels emerge and return, forming a "figure 8"-shaped structure--the embryo in the center with vascular loops extending outward over both poles. […] Following a lag period of around 15 minutes, the constriction of continuity between capillary and secondary vessels, generally on the "avenous" side, was observed. Continued pulsatile blood flow progressed, resulting in a "swelling" of the blind tube, followed by a pinching off of the remaining connection and formation of an enclosed vascular sac resembling a "blood island." This process progressed until only the largest vessels remained intact.

Data set [7] relates to human melanoma. The data set can be described thus: Growth of human melanoma cells over time / cell death. In kind it is cell-based.
In data set [8] the test system is Human ovarian carcinoma SKOV3. The data set is described as follows: Growth inhibition in vitro. The following applies: in words. Type of data set: cell-based. From the text: As set forth in Table 7 below, all malignant tumors evaluated in tissue culture, endothelial cells and vascular smooth muscle cells were sensitive to inhibition. Thus, compound 1436 has application in the control of growth factor dependent proliferation of many types of tissue.

Data set [9] is described as follows: Fasting blood glucose in mice. The following applies: mouse, in vivo, iv. In kind it is in vivo, mouse (male CD-1). The protocol: To study the effect of steroid administrator or the NHE responsible for secretion of insulin, several of the aminosterols from shark liver were administered to fasting mice. Male CD-1 mice were assigned to one of four treatment groups. Whole blood glucose was tested using glucometer (Lifescan Glucometer II and One Touch test strips). Statistical analysis was via one-way analysis of variance (ANOVA) followed by subsequent Bonferonni's t-test.

[10] abbreviates: L1210 mice, cisplatin 8 mg/kg ip or compound 1436 10 mg/kg ip q4d.

Consider `N=C(N)NC(=O)c1nc(Cl)c(N)nc1N` [Amiloride], for which the “inhibition of NHE1β” value in data set [1] was “inhibited by high concentrations of amiloride”.

Turning to `N.N.[Cl][Pt][Cl]` [Cisplatin], in [2] (setting [10]), the “RBC, Early Time” value is 9.4 10^6 /mm^3; the “RBC, Late Time” value is 1.5 10^6 /mm^3; the “WBC, Early Time” value is reported as 8.1 10^3 /mm^3; the “WBC, Late Time” value is listed as 18.1 10^3 /mm^3. Besides, the hematological profile result in data set [2] (in words) is on record as “profound anemia by day 28”.

With `C[C@H](CCC(=O)O)[C@H]1CC[C@H]2[C@@H]3CC[C@H]4C[C@@H](NCCCNCCCCN)CC[C@]4(C)[C@H]3CC[C@]12C` [Compound 319], the “suppression of B16 melanoma tumor growth” value in data set [3] was “achieved control of B16 in C57B mice to an extent almost comparable to squalamine”; in [3] (listed as compound 319), “suppression of murine melanoma in mice”. Moreover, the minimal effective concentration in data set [4] turned out to be 13.8 µg/mL. For the same molecule, the “pharmacological response in tadpole” value in [5] is listed as “common vascular occlusive effect”. In addition, the “vascular reactivity (capillary regression)” value (“vascular reactivity” for short) in data set [6] (0.001 μg applied) was “+/-”; in data set [6] (0.01 μg applied), “+”; in data set [6] (0.1 μg applied) it was “+”; in data set [6] (1 μg applied) it was “+”; in data set [6] (10 μg applied) it was “+”. Further, the “Chick embryo diss. assay, Minimum Effective Concentration” value (from here on “Chick embryo diss. assay”) in data set [6] was 0.001 µg. Further, the “effect on chick embryo vessels / blood” value in data set [6] is given as “especially active”.

As for `CC(C)CCC[C@@H](C)[C@H]1CC[C@H]2[C@@H]3CC[C@H]4C[C@@H](NCCCNCCCCNCCCN)CC[C@]4(C)[C@H]3CC[C@]12C` [Compound 353], in [7] (48 hours vs first 12 hours), the “effect on growth of melanoma” value is on record as “most pronounced over 48 hours, with less of an effect noted within the first 12 hours of incubation”. Further, the “mode of cell death / activity against melanoma” value in data set [7] (in words) was “potent activity against melanoma and a number of cancer cells; also recorded: apoptotic cell death has been induced”. Moreover, in [5], the “pharmacological response in tadpole” value is “effects like those produced by compound 1436”. Further, the “vascular reactivity” value in data set [6] (1 μg applied) is given as “+/-”. Besides, in data set [6], the “Chick embryo diss. assay” value is more than 1 µg and the “effect on chick embryo vessels / blood” value is “no effect on the chick embryo capillary bed”.

In the case of `COC(=O)CC[C@@H](C)[C@H]1CC[C@H]2[C@@H]3[C@H](O)C[C@@H]4C[C@H](NCCN)CC[C@]4(C)[C@H]3CC[C@]12C` [Compound 410], the “pharmacological response in tadpole” value in data set [5] is recorded as “functionally similar to compound 1437”. For the same molecule, the “vascular reactivity” value is on record as 0 in [6] (0.001 μg applied), “+/-” in [6] (0.01 μg applied), “+/-” in [6] (0.1 μg applied) and “+” in data set [6] (1 μg applied). For the same molecule, the “Chick embryo diss. assay” value in data set [6] is 0.01 µg.

Consider `C[C@H](CCC(=O)O)[C@H]1CC[C@H]2[C@@H]3[C@H](O)C[C@@H]4C[C@H](NCCCNCCCCNCCCN)CC[C@]4(C)[C@H]3CC[C@]12C` [Compound 412], for which, in data set [5], the “pharmacological response in tadpole” value is reported as “pharmacologic activity similar to that seen for FX 3”. The “vascular reactivity” value in [6] (0.001 μg applied) is given as 0; in data set [6] (0.01 μg applied), 0; in data set [6] (0.1 μg applied), 0; in data set [6] (1 μg applied) it was “+”. Besides, the “Chick embryo diss. assay” value in [6] was 1 µg.

`C[C@H](CCC(=O)O)[C@H]1CC[C@H]2[C@@H]3[C@H](O)C[C@@H]4C[C@@H](NCCCNCCCCNCCCN)CC[C@]4(C)[C@H]3CC[C@]12C` [Compound 413]: the “pharmacological response in tadpole” value in data set [5] is given as “effects like those produced by compound 1436”. The “vascular reactivity” value in data set [6] (1 μg applied) is listed as 0. Moreover, in data set [6], the “Chick embryo diss. assay” value is more than 1 µg.

Consider `C[C@H](CCC(=O)O)[C@H]1CC[C@H]2[C@@H]3[C@H](O)C[C@@H]4C[C@H](NCCN)CC[C@]4(C)[C@H]3CC[C@]12C` [Compound 414], for which the “pharmacological response in tadpole” value in data set [5] was “pharmacologic activity similar to Fraction 1”. Besides, in data set [6] (1 μg applied), the “vascular reactivity” value amounted to 0. Also, the “Chick embryo diss. assay” value in data set [6] was more than 1 µg.

In the case of `COC(=O)CC[C@@H](C)[C@H]1CC[C@H]2[C@@H]3CC[C@@H]4C[C@H](NCCN)CC[C@]4(C)[C@H]3C[C@H](O)[C@]12C` [Compound 416], the “pharmacological response in tadpole” value in data set [5] is “functionally similar to compound 1437”. In [6], the “Chick embryo diss. assay” value is more than 1 µg.

Regarding `COC(=O)CC[C@@H](C)[C@H]1CC[C@H]2[C@@H]3C[C@@H](O)[C@H]4C[C@H](NCCN)CC[C@]4(C)[C@H]3CC[C@]12C` [Compound 431], the “pharmacological response in tadpole” value in [5] is given as “functionally similar to compound 1437”. For the same molecule, the “Chick embryo diss. assay” value in data set [6] was more than 1 µg.

Take `COC(=O)CC[C@@H](C)[C@H]1CC[C@H]2[C@@H]3C[C@@H](O)[C@H]4C[C@@H](NCCN)CC[C@]4(C)[C@H]3CC[C@]12C` [Compound 432]: in [5], the “pharmacological response in tadpole” value is given as “functionally similar to compound 1437”. Moreover, in [6], the “Chick embryo diss. assay” value was more than 1 µg.

Take `C[C@H](CCC(=O)O)[C@H]1CC[C@H]2[C@@H]3C[C@@H](O)[C@H]4C[C@@H](NCCN)CC[C@]4(C)[C@H]3CC[C@]12C` [Compound 433]: the “pharmacological response in tadpole” value in data set [5] is reported as “functionally similar to compound 1437”. Moreover, in data set [6], the “Chick embryo diss. assay” value came to 1 µg.

On to `COC(=O)CC[C@@H](C)[C@H]1CC[C@H]2[C@@H]3CC[C@H]4C[C@H](NCCCNCCCCNCCCN)CC[C@]4(C)[C@H]3CC[C@]12C` [Compound 458], for which, in [5], the “pharmacological response in tadpole” value was “pharmacologic activity similar to that seen for FX 3”. Also, in data set [6], the “Chick embryo diss. assay” value is more than 1 µg.

As for `COC(=O)CC[C@@H](C)[C@H]1CC[C@H]2[C@@H]3CC[C@H]4C[C@@H](NCCCNCCCCNCCCN)CC[C@]4(C)[C@H]3CC[C@]12C` [Compound 459], in [5], the “pharmacological response in tadpole” value is “pharmacologic activity similar to that seen for FX 3”. Further, in data set [6], the “Chick embryo diss. assay” value was more than 1 µg.

Regarding `COC(=O)CC[C@@H](C)[C@H]1CC[C@H]2[C@@H]3C[C@@H](O)[C@H]4C[C@@H](NCCCNCCCCNCCCN)CC[C@]4(C)[C@H]3CC[C@]12C` [Compound 466], the “pharmacological response in tadpole” value in [5] is reported as “pharmacologic activity similar to that seen for FX 3”. In data set [6], the “Chick embryo diss. assay” value was 1 µg.

Take `CC(C)C(CO)(CC[C@@H](C)[C@H]1CC[C@H]2[C@@H]3[C@H](O)C[C@H]4C[C@@H](NCCCNCCCCN)CC[C@]4(C)[C@H]3CC[C@]12C)OS(=O)(=O)O` (stereo partly shown) [Compound 1437]: the anticancer activity result in [8] was “anticancer activity against the human ovarian carcinoma, SKOV3”. The hyperglycemia result in [9] was “caused hyperglycemia in mice”. Further, the “Chick embryo diss. assay” value in data set [6] was more than 1 µg.
